Measurements published in US5220042A, “1,4-benzoquinone derivatives and benzene derivatives, and process for preparing the same” (priority 1984, dated 1993).

Experiments:
5-lipoxygenase = molecular target: T1, 5-lipoxygenase (Cavia porcellus, UniProt A0A286X958); assay: 5-Lipoxygenase inhibitory activity (conversion of 14C-arachidonic acid to 5-HETE) in guinea pig peritoneal exudate cells; format: cell-based, guinea pig (Hartley strain); settings: read-out: inhibition ratio (%) of 5-lipoxygenase activity; for inhibition at 0.3 µM: concentration 3 × 10^-7 M; for inhibition at 1 µM: concentration 10^-6 M; for inhibition at 0.1 µM: concentration 10^-7 M
T1 construct: endogenous in cells; host or cells: guinea pig (Hartley strain) casein-elicited peritoneal exudate cells, intact cell suspension
T1 sequence (A0A286X958 1-674): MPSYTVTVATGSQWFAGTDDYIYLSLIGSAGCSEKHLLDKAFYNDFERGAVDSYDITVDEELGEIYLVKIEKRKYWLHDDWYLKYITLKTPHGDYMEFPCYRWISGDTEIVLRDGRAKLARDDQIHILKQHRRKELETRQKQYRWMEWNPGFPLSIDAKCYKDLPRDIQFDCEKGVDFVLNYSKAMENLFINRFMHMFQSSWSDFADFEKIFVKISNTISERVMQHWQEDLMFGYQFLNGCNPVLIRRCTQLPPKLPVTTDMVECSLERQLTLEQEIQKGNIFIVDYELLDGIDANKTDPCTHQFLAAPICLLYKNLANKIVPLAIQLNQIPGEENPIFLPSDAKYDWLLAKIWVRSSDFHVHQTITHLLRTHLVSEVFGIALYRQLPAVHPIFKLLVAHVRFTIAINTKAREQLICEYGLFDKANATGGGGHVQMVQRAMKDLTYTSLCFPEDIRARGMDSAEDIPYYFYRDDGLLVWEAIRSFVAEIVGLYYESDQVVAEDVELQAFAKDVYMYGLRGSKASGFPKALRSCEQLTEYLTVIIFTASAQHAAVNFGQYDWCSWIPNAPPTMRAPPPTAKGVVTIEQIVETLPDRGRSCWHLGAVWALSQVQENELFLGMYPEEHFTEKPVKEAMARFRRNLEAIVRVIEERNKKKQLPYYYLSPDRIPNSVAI
Protocol: 5-Lipoxygenase inhibitory activity of the present compounds was determined by a method according to procedures described in "J. Biol. Chem., Vol. 256, pages 4156-4159, (1981, Ibid. Vol. 258, pages 5754-5758 (1983).
(1) Preparation of Test Cells
A guinea pig (Hartley strain) (500-650 g body weight) was intraperitoneally administered with 2%-casein solution in 3/50 the volume of body weight. 14 Hours after the administration, the animal was sacrificed by bleeding and the peritoneal cavity was washed with Dulbecco's phosphate buffered saline (PBS) containing 3 U/ml of heparin and the exudate cells were harvested. The sample of cells was washed twice with Dulbecco's PBS (-), then the cells were suspended in Dulbecco's PBS (-), containing 1 mM of calcium chloride and 5.5 mM of glucose, so as to make a suspension having the concentration of 2.5×10^7 cells/ml.
To 0.2 ml of the above-mentioned cell suspension was added 10^-5 M of Indomethacine, and incubated at 30° C. for 2 minutes. Each of the appropriate concentrations of test compounds was added to the suspension respectively, further incubated for 2 minutes. Next, 10 μm of Ionophore A23187 (manufactured by Calbiochem-Behring, San Diego, Calif., U. S. A) was added to the suspension, further, 10 μm of ^14 C-arachidonic acid (manufactured by Amersham Japan, Ltd., Tokyo, Japan) was added and initiated the reaction. 3 Minutes after the initiation of the reaction, 0.1 ml of 0.2M-citric acid was added so as to terminate the reaction. 1.2 Milliliters of ethyl acetate was added to the reaction mixture and shaked for 5 minutes. The reaction mixture was centrifuged at 3,000 rpm for 5 minutes so as to separate the organic layer from the aqueous layer. 1 Milliliter of the organic layer (the upper layer) was dehydrated by passing through a mini-column packed with anhydrous sodium sulfate. The dehydrated organic layer was dried under nitrogen gas stream. The residue obtained was dissolved in ethyl acetate, and the total amount of the ethyl acetate solution was spotted onto thin layer chromochromatography (TCL) plate (Art. 11845 manufactured by E. Merck A. G.). The TCL was carried out with a mixed solvent of diethyl ether:petroleum:ether:acetic acid (50:50:1 volume/volume), then the radioactive metabolites on the plate were detected by using "Ultrafilm ^3 H" (a trademark for a X-ray film, manufactured by LKB Co.). Each fractions corresponding to the metabolites was scraped in to a scintillation vial, and 5 ml of "Scintilator ACS-II" (manufactured by Amersham Japan, Ltd.), was added then the radio-activity was determined by means of a liquid scintillation counter.

[1] = test system: histamine release on anaphylaxis in abdominal cavity; assay: Histamine releasing inhibition test on anaphylaxis in abdominal cavity of rats; format: in vivo, rat (Sprague-Dawley strain); settings: oral, 3 hours before anaphylaxis; dose not given
Protocol: SRS-A and histamine releasing inhibition test on anaphylaxis in abdominal cavity of rats.
Male or female rats (Sprague-Dawley strain, delivered from Charles River, Japan Ltd., Tokyo) of 6-7 week age were used as the test animals. The test animals were devided into a group consisting of 6 animals in one group depending on their body weight. The animals were fasted overnight. The test was conducted by a method according to P. T. Orange et al.: "J. Immunol., Vol. 105", pages 1087-1095 (1970).
1 Milliliter each of twofold diluted anti-ovalbumin serm of rat was intraperitoneally injected to each of the test animal so as to have the rat sensitized. 2 Hours after the sensitization, 5 ml of Tyrode's solution containing 2 mg of ovalbumin and 250 micrograms of heparin sodium was intraperitoneally administered to the test animal to cause anaphylaxis. 5 Minutes after, the test animal was stunned by the blow on the head and was exsanguinated and killed by cervical incision. Additional 5 minutes later, the abdominal fluid was collected from the opening of the abdomen. The fluid collected was centrifuged at 4° C., first at 800 rpm, then at 2,500 rpm and the supernatant was collected, and stored at -80° C. until the bioassay was conducted. […]
The amount of SRS-A and histamine contained in the collected abdominal fluid was measured by a method similar to that employed in Pharmacological test-2.
Bio-assay of the collected abdominal fluid was conducted by using ileum of guinea pig which was treated with atropine. […] The isotonic contraction of the piece of the ileum was measured at 0.5 g of load by using an isotonic transducer "TD-112S" (manufactured by Nihon Koden Co., Ltd.). The measurements were recorded on an ink-writing recorder.
After stabilization of the contraction reaction due to histmine, the amount of histamine was measured quantitatively by observing the contraction of the piece of the ileum shown within 30 seconds after addition of 0.05-0.4 ml of the abdominal fluid. […]

SMILES: COC1=CC(=O)C(OC)=C(CCCCCC2=C(OC)C(=O)C=C(OC)C2=O)C1=O [Test Compound No. 9, 2,2'-Pentamethylenebis(3,6-dimethoxy-1,4-benzoquinone)]
- inhibition at 0.3 µM (5-lipoxygenase): 55%
- inhibition at 1 µM (5-lipoxygenase): 74%
- inhibition at 0.1 µM (5-lipoxygenase): 38%
- Inhibitory rate (%) Histamine [1]: -3.6%

SMILES: COC1=CC(=O)C(OC)=C(CCCCCCCCCC2=C(OC)C(=O)C=C(OC)C2=O)C1=O [Test Compound No. 13, 2,2'-Nonamethylenebis(3,6-dimethoxy-1,4-benzoquinone)]
- inhibition at 0.3 µM (5-lipoxygenase): 72%
- inhibition at 1 µM (5-lipoxygenase): 91%
- inhibition at 0.1 µM (5-lipoxygenase): 43%
- Inhibitory rate (%) Histamine [1]: 10.9%

SMILES: COC1=CC(=O)C(OC)=C(CCCCCC#CCCCCCC2=C(OC)C(=O)C=C(OC)C2=O)C1=O [Test Compound No. 16, 2,2'-(6-Dodecynylene)bis(3,6-dimethoxy-1,4-benzoquinone)]
- inhibition at 0.3 µM (5-lipoxygenase): 84%
- inhibition at 1 µM (5-lipoxygenase): 87%
- inhibition at 0.1 µM (5-lipoxygenase): 61%
- Inhibitory rate (%) Histamine [1]: 8.0%
